According to the kinase profiling compilation of Christmann-Franck et al. (2016):
Each block holds one compound with its values, some of them ahead of it.

Columns and labels:
Experiment in all cases: Caliper, Mobility shift assay off-chip
RPS6KA4 KD1 KD2 (human) = RPS6KA4 KD1 KD2 (human) (UniProt O75676)
RPS6KA3 KD1 KD2 (human) = RPS6KA3 KD1 KD2 (human) (UniProt P51812)
SPHK1 (human) = SPHK1 (human) (UniProt Q9NYA1)
ERBB2 (human) = ERBB2 (human) (UniProt P04626)
MAPKAPK3 (human) = MAPKAPK3 (human) (UniProt Q16644)
PRKD1 (human) = PRKD1 (human) (UniProt Q15139)
CDC7 (human) = CDC7 (human) (UniProt O00311)
FLT1 (human) = FLT1 (human) (UniProt P17948)
TNK1 (human) = TNK1 (human) (UniProt Q13470)
FGR (human) = FGR (human) (UniProt P09769)
MAPKAPK5 (human) = MAPKAPK5 (human) (UniProt Q8IW41)
FES (human) = FES (human) (UniProt P07332)
RPS6KA5 KD1 KD2 (human) = RPS6KA5 KD1 KD2 (human) (UniProt O75582)
RPS6KA6 KD1 KD2 (human) = RPS6KA6 KD1 KD2 (human) (UniProt Q9UK32)
MARK4 (human) = MARK4 (human) (UniProt Q96L34)
PRKCI (human) = PRKCI (human) (UniProt P41743)
STK38L (human) = STK38L (human) (UniProt Q9Y2H1)
EPHA6 (human) = EPHA6 (human) (UniProt Q9UF33)
SGK1 (human) = SGK1 (human) (UniProt O00141)
ALK NPM1 (human) = ALK NPM1 (human) (UniProt P06748+Q9UM73)
EPHA3 (human) = EPHA3 (human) (UniProt P29320)
NTRK1 (human) = NTRK1 (human) (UniProt P04629)
AKT1 (human) = AKT1 (human) (UniProt P31749)
HIPK1 (human) = HIPK1 (human) (UniProt Q86Z02)
TYK2 JH1 JH2 (human) = TYK2 JH1 JH2 (human) (UniProt P29597)
PHKG2 (human) = PHKG2 (human) (UniProt P15735)
MAPK10 (human) = MAPK10 (human) (UniProt P53779)
PRKACA (human) = PRKACA (human) (UniProt P17612)
GSK3A (human) = GSK3A (human) (UniProt P49840)
EPHA7 (human) = EPHA7 (human) (UniProt Q15375)
EPHA1 (human) = EPHA1 (human) (UniProt P21709)
FGFR2 (human) = FGFR2 (human) (UniProt P21802)
PDGFRB (human) = PDGFRB (human) (UniProt P09619)

Sequence of RPS6KA4 KD1 KD2 (human) (O75676 whole entry, looked up): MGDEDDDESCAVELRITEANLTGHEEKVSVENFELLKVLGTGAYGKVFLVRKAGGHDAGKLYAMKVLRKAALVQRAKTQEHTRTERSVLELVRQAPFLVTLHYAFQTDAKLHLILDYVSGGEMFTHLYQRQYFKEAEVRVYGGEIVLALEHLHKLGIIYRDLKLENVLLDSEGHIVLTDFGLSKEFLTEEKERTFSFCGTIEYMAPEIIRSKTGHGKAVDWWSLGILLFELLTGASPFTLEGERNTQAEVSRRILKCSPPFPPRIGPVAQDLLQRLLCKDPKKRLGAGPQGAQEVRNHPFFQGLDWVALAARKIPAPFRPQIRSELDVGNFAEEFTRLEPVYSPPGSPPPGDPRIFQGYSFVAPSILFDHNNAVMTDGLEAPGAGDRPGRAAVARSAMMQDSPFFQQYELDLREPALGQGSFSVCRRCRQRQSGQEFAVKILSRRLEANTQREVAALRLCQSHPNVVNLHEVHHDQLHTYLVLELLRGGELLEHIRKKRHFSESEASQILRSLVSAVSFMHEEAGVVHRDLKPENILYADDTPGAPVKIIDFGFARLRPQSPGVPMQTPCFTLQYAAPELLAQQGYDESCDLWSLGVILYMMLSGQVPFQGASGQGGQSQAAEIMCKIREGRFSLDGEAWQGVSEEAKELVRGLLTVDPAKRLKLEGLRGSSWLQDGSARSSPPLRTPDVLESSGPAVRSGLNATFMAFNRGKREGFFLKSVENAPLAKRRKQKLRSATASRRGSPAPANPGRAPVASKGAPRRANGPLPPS
Sequence of PRKD1 (human) (Q15139 whole entry, looked up): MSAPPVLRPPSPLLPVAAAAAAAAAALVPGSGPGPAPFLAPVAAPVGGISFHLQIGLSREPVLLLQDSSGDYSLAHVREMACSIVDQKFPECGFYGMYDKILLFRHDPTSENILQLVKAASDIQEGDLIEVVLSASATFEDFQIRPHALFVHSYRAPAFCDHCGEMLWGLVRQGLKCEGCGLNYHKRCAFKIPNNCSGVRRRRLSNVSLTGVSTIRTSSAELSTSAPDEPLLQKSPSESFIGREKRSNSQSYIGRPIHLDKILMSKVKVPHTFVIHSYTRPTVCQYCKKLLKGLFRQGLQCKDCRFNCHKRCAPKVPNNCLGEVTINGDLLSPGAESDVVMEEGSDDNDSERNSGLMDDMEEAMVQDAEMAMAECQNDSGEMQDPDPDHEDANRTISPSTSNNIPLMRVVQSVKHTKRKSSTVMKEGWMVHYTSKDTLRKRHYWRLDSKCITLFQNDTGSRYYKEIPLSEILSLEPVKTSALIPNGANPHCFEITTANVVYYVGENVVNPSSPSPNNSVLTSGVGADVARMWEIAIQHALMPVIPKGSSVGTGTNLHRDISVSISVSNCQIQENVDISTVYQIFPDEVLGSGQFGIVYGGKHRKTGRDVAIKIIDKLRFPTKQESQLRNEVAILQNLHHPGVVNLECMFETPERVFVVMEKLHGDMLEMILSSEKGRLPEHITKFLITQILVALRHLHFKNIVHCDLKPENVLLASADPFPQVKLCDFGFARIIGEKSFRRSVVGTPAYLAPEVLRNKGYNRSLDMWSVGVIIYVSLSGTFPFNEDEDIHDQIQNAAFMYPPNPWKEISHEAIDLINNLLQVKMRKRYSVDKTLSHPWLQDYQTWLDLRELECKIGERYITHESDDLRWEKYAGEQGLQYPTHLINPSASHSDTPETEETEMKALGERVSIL
Sequence of HIPK1 (human) (Q86Z02 whole entry, looked up): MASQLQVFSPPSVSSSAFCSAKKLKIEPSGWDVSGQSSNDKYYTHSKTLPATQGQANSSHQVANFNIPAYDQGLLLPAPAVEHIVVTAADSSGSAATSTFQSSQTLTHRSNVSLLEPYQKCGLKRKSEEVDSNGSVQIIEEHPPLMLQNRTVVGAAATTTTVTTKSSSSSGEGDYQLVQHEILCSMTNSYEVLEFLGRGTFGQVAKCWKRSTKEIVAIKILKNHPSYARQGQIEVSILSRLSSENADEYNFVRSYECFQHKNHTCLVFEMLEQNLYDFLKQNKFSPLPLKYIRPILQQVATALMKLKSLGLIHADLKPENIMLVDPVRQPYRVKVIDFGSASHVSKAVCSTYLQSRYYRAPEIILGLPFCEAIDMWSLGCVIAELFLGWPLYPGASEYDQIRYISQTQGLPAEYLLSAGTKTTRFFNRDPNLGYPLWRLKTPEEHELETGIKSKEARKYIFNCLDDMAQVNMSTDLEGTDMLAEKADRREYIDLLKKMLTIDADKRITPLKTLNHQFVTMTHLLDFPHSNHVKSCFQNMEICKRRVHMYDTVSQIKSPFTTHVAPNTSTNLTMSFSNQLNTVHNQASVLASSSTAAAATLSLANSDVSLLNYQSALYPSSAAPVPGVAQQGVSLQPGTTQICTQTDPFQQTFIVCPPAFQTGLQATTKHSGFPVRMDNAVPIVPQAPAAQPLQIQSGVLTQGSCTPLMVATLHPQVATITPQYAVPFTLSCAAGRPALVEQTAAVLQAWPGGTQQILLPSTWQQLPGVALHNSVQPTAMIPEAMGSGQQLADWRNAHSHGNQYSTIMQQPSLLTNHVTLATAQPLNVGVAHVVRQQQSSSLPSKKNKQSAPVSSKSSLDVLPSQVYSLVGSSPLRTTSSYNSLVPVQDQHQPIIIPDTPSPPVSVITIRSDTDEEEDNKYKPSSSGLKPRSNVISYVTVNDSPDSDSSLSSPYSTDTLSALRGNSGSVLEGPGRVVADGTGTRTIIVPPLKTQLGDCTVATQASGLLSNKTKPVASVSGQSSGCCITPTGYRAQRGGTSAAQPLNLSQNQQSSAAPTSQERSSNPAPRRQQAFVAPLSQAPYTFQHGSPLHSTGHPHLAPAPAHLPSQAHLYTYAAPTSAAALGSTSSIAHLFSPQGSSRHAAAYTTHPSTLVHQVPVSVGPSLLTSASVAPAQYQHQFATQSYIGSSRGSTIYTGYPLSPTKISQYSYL
Sequence of RPS6KA5 KD1 KD2 (human) (O75582 whole entry, looked up): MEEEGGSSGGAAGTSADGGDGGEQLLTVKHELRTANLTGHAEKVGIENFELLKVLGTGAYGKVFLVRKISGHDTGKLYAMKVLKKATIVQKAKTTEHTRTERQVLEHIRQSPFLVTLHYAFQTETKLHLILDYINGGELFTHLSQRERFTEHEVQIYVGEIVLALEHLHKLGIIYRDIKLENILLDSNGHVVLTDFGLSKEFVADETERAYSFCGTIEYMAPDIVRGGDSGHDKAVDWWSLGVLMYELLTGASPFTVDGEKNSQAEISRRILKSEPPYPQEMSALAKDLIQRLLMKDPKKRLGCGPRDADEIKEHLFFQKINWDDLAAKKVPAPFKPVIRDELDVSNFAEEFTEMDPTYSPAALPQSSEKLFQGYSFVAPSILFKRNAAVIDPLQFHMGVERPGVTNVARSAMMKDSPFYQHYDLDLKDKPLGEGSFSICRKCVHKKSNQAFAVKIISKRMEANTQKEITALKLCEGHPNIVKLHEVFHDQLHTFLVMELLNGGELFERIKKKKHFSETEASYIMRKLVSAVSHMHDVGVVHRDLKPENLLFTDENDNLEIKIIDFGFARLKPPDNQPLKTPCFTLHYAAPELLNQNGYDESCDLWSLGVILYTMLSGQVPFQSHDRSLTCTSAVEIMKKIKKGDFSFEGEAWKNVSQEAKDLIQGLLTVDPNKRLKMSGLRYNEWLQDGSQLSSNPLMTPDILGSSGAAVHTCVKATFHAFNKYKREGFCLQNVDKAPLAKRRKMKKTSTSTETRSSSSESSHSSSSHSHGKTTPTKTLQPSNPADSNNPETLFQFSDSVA
Sequence of PHKG2 (human) (P15735 whole entry, looked up): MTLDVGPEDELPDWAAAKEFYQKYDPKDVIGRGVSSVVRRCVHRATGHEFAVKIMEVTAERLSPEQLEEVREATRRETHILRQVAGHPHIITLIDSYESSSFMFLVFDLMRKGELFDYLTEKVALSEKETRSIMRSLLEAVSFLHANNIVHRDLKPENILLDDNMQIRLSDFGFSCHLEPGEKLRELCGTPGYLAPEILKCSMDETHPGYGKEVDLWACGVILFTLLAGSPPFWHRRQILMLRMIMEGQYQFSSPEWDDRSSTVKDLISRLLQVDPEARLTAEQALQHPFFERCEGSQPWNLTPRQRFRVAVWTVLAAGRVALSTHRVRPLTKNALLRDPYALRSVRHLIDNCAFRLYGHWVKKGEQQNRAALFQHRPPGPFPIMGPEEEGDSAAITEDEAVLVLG
Sequence of MARK4 (human) (Q96L34 whole entry, looked up): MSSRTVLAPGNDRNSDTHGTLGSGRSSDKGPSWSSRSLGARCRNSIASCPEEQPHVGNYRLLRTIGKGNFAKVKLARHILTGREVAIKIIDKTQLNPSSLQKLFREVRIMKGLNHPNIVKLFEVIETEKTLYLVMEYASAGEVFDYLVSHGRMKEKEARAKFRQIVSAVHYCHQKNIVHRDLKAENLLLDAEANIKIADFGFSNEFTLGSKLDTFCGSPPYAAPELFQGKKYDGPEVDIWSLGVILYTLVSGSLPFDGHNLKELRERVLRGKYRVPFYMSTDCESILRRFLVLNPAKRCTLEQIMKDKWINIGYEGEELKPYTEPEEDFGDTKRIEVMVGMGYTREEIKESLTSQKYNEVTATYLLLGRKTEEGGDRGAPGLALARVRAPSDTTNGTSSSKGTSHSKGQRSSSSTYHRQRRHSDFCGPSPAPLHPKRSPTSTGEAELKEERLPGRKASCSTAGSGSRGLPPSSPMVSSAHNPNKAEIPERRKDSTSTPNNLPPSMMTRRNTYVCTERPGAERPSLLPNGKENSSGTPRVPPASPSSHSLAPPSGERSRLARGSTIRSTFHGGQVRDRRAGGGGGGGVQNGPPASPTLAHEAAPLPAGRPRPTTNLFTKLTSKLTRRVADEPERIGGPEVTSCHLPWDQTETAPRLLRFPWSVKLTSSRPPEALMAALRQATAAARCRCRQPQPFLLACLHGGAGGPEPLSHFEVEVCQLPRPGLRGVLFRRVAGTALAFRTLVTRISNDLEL

inhibition (RPS6KA4 KD1 KD2 (human); compound 0.02 µM): -1.1%
inhibition (RPS6KA4 KD1 KD2 (human); compound 0.2 µM): 2.6%
inhibition (RPS6KA3 KD1 KD2 (human); compound 0.02 µM): -5%
inhibition (RPS6KA3 KD1 KD2 (human); compound 0.2 µM): -5.9%
inhibition (SPHK1 (human); compound 0.02 µM): -3.1%
inhibition (SPHK1 (human); compound 0.2 µM): 3.2%
inhibition (ERBB2 (human); compound 0.02 µM): 0.5%
inhibition (ERBB2 (human); compound 0.2 µM): -1.7%
inhibition (MAPKAPK3 (human); compound 0.02 µM): -6.2%
inhibition (MAPKAPK3 (human); compound 0.2 µM): 3.5%
inhibition (PRKD1 (human); compound 0.02 µM): -1.1%
inhibition (PRKD1 (human); compound 0.2 µM): 2.7%
inhibition (CDC7 (human); compound 0.02 µM): -4.3%
inhibition (CDC7 (human); compound 0.2 µM): -4.2%
inhibition (FLT1 (human); compound 0.02 µM): 49.3%
inhibition (FLT1 (human); compound 0.2 µM): 99.6%
inhibition (TNK1 (human); compound 0.02 µM): -0.4%
inhibition (TNK1 (human); compound 0.2 µM): 19%
inhibition (FGR (human); compound 0.02 µM): 1.6%
inhibition (FGR (human); compound 0.2 µM): 14.2%
inhibition (MAPKAPK5 (human); compound 0.02 µM): -7.4%
inhibition (MAPKAPK5 (human); compound 0.2 µM): 1.4%
inhibition (FES (human); compound 0.02 µM): -3.2%
inhibition (FES (human); compound 0.2 µM): 7.2%
inhibition (RPS6KA5 KD1 KD2 (human); compound 0.02 µM): -2.5%
inhibition (RPS6KA5 KD1 KD2 (human); compound 0.2 µM): 0.1%
inhibition (RPS6KA6 KD1 KD2 (human); compound 0.02 µM): -2%
inhibition (RPS6KA6 KD1 KD2 (human); compound 0.2 µM): -6.2%
inhibition (MARK4 (human); compound 0.02 µM): 1.4%
inhibition (MARK4 (human); compound 0.2 µM): 1.6%
inhibition (PRKCI (human); compound 0.02 µM): -0.2%
inhibition (PRKCI (human); compound 0.2 µM): 5.7%
inhibition (STK38L (human); compound 0.02 µM): -3.6%
inhibition (STK38L (human); compound 0.2 µM): 4.2%
inhibition (EPHA6 (human); compound 0.02 µM): 16.5%
inhibition (EPHA6 (human); compound 0.2 µM): 77.8%
inhibition (SGK1 (human); compound 0.02 µM): -0.6%
inhibition (SGK1 (human); compound 0.2 µM): 8.5%
inhibition (ALK NPM1 (human); compound 0.02 µM): -6%
inhibition (ALK NPM1 (human); compound 0.2 µM): 5%
inhibition (EPHA3 (human); compound 0.02 µM): -2.6%
inhibition (EPHA3 (human); compound 0.2 µM): 17%
inhibition (NTRK1 (human); compound 0.02 µM): 7.9%
inhibition (NTRK1 (human); compound 0.2 µM): 37.2%
inhibition (AKT1 (human); compound 0.02 µM): -2.8%
inhibition (AKT1 (human); compound 0.2 µM): -1.4%
inhibition (HIPK1 (human); compound 0.02 µM): -1.4%
inhibition (HIPK1 (human); compound 0.2 µM): 3.9%
inhibition (TYK2 JH1 JH2 (human); compound 0.02 µM): -2.4%
inhibition (PHKG2 (human); compound 0.02 µM): -3.1%
inhibition (PHKG2 (human); compound 0.2 µM): -2.3%
inhibition (MAPK10 (human); compound 0.02 µM): -6.5%
inhibition (MAPK10 (human); compound 0.2 µM): -4.6%
inhibition (PRKACA (human); compound 0.02 µM): -4.7%
inhibition (PRKACA (human); compound 0.2 µM): 0.7%
inhibition (GSK3A (human); compound 0.02 µM): -3.9%
inhibition (GSK3A (human); compound 0.2 µM): 6.8%
inhibition (EPHA7 (human); compound 0.02 µM): 2%
inhibition (EPHA7 (human); compound 0.2 µM): 26.5%
inhibition (EPHA1 (human); compound 0.02 µM): -1.2%
inhibition (EPHA1 (human); compound 0.2 µM): 8%
SMILES: CNC(=O)c1cc(Oc2ccc(NC(=O)Nc3ccc(Cl)c(C(F)(F)F)c3)cc2)ccn1

inhibition (RPS6KA4 KD1 KD2 (human); compound 0.2 µM): 15.5%
inhibition (RPS6KA4 KD1 KD2 (human); compound 4.0 µM): 73.7%
inhibition (RPS6KA3 KD1 KD2 (human); compound 0.2 µM): 61.7%
inhibition (SPHK1 (human); compound 0.2 µM): -10.4%
inhibition (SPHK1 (human); compound 4.0 µM): -9.1%
inhibition (ERBB2 (human); compound 0.2 µM): -3.2%
inhibition (ERBB2 (human); compound 4.0 µM): -2.9%
inhibition (MAPKAPK3 (human); compound 0.2 µM): 1.2%
inhibition (MAPKAPK3 (human); compound 4.0 µM): 3.2%
inhibition (PRKD1 (human); compound 0.2 µM): 73.6%
inhibition (PRKD1 (human); compound 4.0 µM): 99%
inhibition (CDC7 (human); compound 0.2 µM): 0.9%
inhibition (CDC7 (human); compound 4.0 µM): 4.9%
inhibition (FLT1 (human); compound 0.2 µM): 90.4%
inhibition (FLT1 (human); compound 4.0 µM): 103%
inhibition (TNK1 (human); compound 0.2 µM): 32.1%
inhibition (TNK1 (human); compound 4.0 µM): 88.4%
inhibition (FGR (human); compound 0.2 µM): 63.4%
inhibition (MAPKAPK5 (human); compound 0.2 µM): 6%
inhibition (MAPKAPK5 (human); compound 4.0 µM): 45.2%
inhibition (FGFR2 (human); compound 0.2 µM): 71.3%
inhibition (FGFR2 (human); compound 4.0 µM): 99.7%
inhibition (RPS6KA5 KD1 KD2 (human); compound 0.2 µM): 18.2%
inhibition (RPS6KA5 KD1 KD2 (human); compound 4.0 µM): 73.3%
inhibition (RPS6KA6 KD1 KD2 (human); compound 0.2 µM): 80.7%
inhibition (RPS6KA6 KD1 KD2 (human); compound 4.0 µM): 97.8%
inhibition (MARK4 (human); compound 0.2 µM): 76.3%
inhibition (MARK4 (human); compound 4.0 µM): 100%
inhibition (PRKCI (human); compound 0.2 µM): -2%
inhibition (PRKCI (human); compound 4.0 µM): 7.8%
inhibition (STK38L (human); compound 0.2 µM): 6.1%
inhibition (STK38L (human); compound 4.0 µM): 32.7%
inhibition (EPHA6 (human); compound 0.2 µM): 43.4%
inhibition (EPHA6 (human); compound 4.0 µM): 92.7%
inhibition (PDGFRB (human); compound 0.2 µM): 98.9%
inhibition (PDGFRB (human); compound 4.0 µM): 102%
inhibition (SGK1 (human); compound 0.2 µM): 28.6%
inhibition (SGK1 (human); compound 4.0 µM): 87.8%
inhibition (ALK NPM1 (human); compound 0.2 µM): 76%
inhibition (ALK NPM1 (human); compound 4.0 µM): 100%
inhibition (EPHA3 (human); compound 0.2 µM): -0.2%
inhibition (EPHA3 (human); compound 4.0 µM): 21.2%
inhibition (NTRK1 (human); compound 0.2 µM): 99.7%
inhibition (NTRK1 (human); compound 4.0 µM): 101%
inhibition (AKT1 (human); compound 0.2 µM): -0.8%
inhibition (AKT1 (human); compound 4.0 µM): 35.7%
inhibition (HIPK1 (human); compound 0.2 µM): 51.3%
inhibition (HIPK1 (human); compound 4.0 µM): 94.4%
inhibition (TYK2 JH1 JH2 (human); compound 0.2 µM): 21.6%
inhibition (TYK2 JH1 JH2 (human); compound 4.0 µM): 78.3%
inhibition (PHKG2 (human); compound 0.2 µM): 85.2%
inhibition (PHKG2 (human); compound 4.0 µM): 99%
inhibition (MAPK10 (human); compound 0.2 µM): -2.3%
inhibition (PRKACA (human); compound 0.2 µM): 0.6%
inhibition (PRKACA (human); compound 4.0 µM): 49%
inhibition (GSK3A (human); compound 0.2 µM): 3.3%
inhibition (GSK3A (human); compound 4.0 µM): 21.8%
inhibition (EPHA7 (human); compound 0.2 µM): 19.8%
inhibition (EPHA7 (human); compound 4.0 µM): 82%
inhibition (EPHA1 (human); compound 0.2 µM): 8.2%
inhibition (EPHA1 (human); compound 4.0 µM): 66.9%
SMILES: CCN(CC)CCNC(=O)c1c(C)[nH]c(/C=C2\C(=O)Nc3ccc(F)cc32)c1C
